Some results are limits rather than exact numbers.

Usually EC50 stands for the concentration needed to bring the measured effect to its halfway point.

T1 sequence (P34972 whole entry): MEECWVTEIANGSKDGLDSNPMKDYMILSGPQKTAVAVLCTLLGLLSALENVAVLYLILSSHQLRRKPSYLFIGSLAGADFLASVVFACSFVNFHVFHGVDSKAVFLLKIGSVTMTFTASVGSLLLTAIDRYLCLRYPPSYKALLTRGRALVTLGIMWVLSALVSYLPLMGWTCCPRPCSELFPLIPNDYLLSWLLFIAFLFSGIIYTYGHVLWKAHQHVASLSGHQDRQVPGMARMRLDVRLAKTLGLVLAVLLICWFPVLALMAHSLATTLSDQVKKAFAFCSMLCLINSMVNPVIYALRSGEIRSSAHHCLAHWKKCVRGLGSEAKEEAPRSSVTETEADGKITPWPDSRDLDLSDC

This test has as its target T1, Human CB2R (Cannabinoid receptor 2) (Homo sapiens, UniProt P34972).
T1 construct: host or cells: HEK-293
The test can be described thus: CB-2 in vitro cAMP (HTRF) functional assay. Conditions: mean where tested more than once. In kind it is cell-based. The source says:
CB1 and CB2 receptors are Gi-coupled GPCR. Activation of CB1 and CB2 receptors results in a decrease in cAMP production. An inverse agonist of the CB1 or CB2 receptor results in the opposite effect, an increase of cAMP production. The principle of this assay is based on HTRF® technology (Homogeneous Time-Resolved Fluorescence). The method is a competitive immunoassay between native cAMP produced by cells and the cAMP labeled with the fluorophore d2. The tracer binding is quantified by a Mab anti-cAMP labeled with Eu3+ TBP-NHS Cryptate (supplied as part of the assay kit). The specific signal (i.e. energy transfer) is inversely proportional to the concentration of cAMP in the standard or sample.
Human CB1R (Cannabinoid receptor 1) was stably transfected in HEK-293 cells (DiscoveRx, cat: 93-0200C1). Human CB2R (Cannabinoid receptor 2) was stably transfected in HEK-293 cells (DiscoveRx, cat: 93-0201C1). Cell cultures were maintained in media: DMEM (Invitrogen Cat#12430-054) supplemented with 10% HI FBS (Invitrogen Cat#16140-071), 1% L-glutamine (Invitrogen Cat#25030-081), 0.2 mg/ml Hygromycin B (Invitrogen Cat#10687-010), 600 μg/mL G418 (Invitrogen Cat#10131-035), and 1× Penn/Strep (Invitrogen 15140-122). After cell expansion, aliquots were cryo-stored in media containing 5% DMSO (Pierce Cat#20684).
One day prior to experiments media was warmed to 37° C. and the cryo-stored cells were thawed in a 37° C. water bath. The cells were then added to media (10× volume) and the mixture was centrifuged at 1000 RPM for 5 min. The supernate was removed and the cells were re-suspended in media. A sample of the cell suspension was evaluated on a Cedex XS automated cell counter (Innovatis Systems) to determine viable cells/ml. Additional media was added to the cells to achieve a final cell density of 4E5 cells/mL. The cells were then plated into 384 well PDL white solid bottom plates (Greiner, Cat#781945) at 20 μL per well using a Multidrop (Thermo Scientific). Cells were removed from Row P (location of cAMP standards). Two columns of cells were plated into a clear bottom 384 well PDL coated plate (Greiner, Cat#781944) to view confluence the day of the assay. The cell plates were lidded and stored for 15 minutes in a hood, then transferred to an incubator (37° C., 5% CO2, 95% humidity) overnight.
DMSO was added to all wells of 384 well V bottom polystyrene plate (Greiner, Cat#781280) except to columns 1 and 13, rows O and P and wells M13-M23 and N13-N23. Test compounds (60 μL, 10 mM) were added to Column 1 and 13 (A1 through N1 and A13 through L13). Test compounds were serially diluted 1/3 by transferring and mixing 20 μl sample with 40 μL DMSO.
DMSO (40 μL) was added to wells of 384 well V bottom polystyrene plate: O2 through O11, M14 through M23, N14 through N23, and O14 through O23. AM630 (also known as [6-iodo-2-methyl-1-[2-(4-morpholinyl)ethyl]-1H-indol-3-yl](4-methoxyphenyl)-methanone, Cayman Chemical, Cat#10006974) (60 μL, 10 mM) was added to O1; and 1-(2,4-dichlorophenyl)-7-[(4-fluorophenyl)methylene]-4,5,6,7-tetrahydro-N-1-piperidinyl-1H-indazole-3-carboxamide (60 μL, 10 mM) was added to N13. The control was serially diluted 1/3 by transferring and mixing 20 μl sample with 40 μL DMSO. This process resulted 11 doses per control, 10 mM to […].
Cells plated the day prior to the assay in clear bottom plates were viewed on an inverse microscope to ensure confluency in the range of 60-75%. […]
A general note: TR-FRET usually uses a lanthanide donor and a delayed reading to cut background.
As to `O=c1cc(NCc2ccc(C(F)(F)F)cc2)c2cc(C(c3ccc(Cl)cc3)c3ccc(Cl)cc3)ccc2[nH]1` [Compound 58, 6-[Bis(4-chlorophenyl)methyl]-4-{[4-(trifluoromethyl)benzyl]amino}quinolin-2(1H)-one], the EC50 was above 10 µM.

In the case of `O=c1cc(Nc2cccc(C(F)(F)F)c2)c2cc(C(c3ccc(Cl)cc3)c3ccc(Cl)cc3)ccc2[nH]1` [Compound 75, 6-[Bis(4-chlorophenyl)methyl]-4-{[3-(trifluoromethyl)phenyl]amino}quinolin-2(1H)-one], the EC50 was above 10 µM.

Turning to `O=c1cc(NCc2ccc(C(F)(F)F)cn2)c2cc(C(c3ccc(Cl)cc3)c3ccc(Cl)cc3)ccc2[nH]1` [Compound 78, 6-[Bis(4-chlorophenyl)methyl]-4-({[5-(trifluoromethyl)pyridin-2-yl]methyl}amino)quinolin-2(1H)-one], the EC50 was above 10 µM.

Compound `O=c1cc(Nc2ccc(Cl)c(F)c2)c2cc(C(c3ccc(Cl)cc3)c3ccc(Cl)cc3)ccc2[nH]1` [Compound 83, 6-[Bis(4-chlorophenyl)methyl]-4-[(4-chloro-3-fluorophenyl)amino]quinolin-2(1H)-one] displayed an EC50 above 10 µM.

`COC(=O)c1ccc(Nc2cc(=O)[nH]c3ccc(C(c4ccc(Cl)cc4)c4ccc(Cl)cc4)cc23)cc1` [Compound 85, Methyl 4-({6-[bis(4-chlorophenyl)methyl]-2-oxo-1,2-dihydroquinolin-4-yl}amino)benzoate] displayed an EC50 above 10 µM.

Take `NC(=O)c1ccc(Nc2cc(=O)[nH]c3ccc(C(c4ccc(Cl)cc4)c4ccc(Cl)cc4)cc23)cc1` [Compound 87, 4-({6-[Bis(4-chlorophenyl)methyl]-2-oxo-1,2-dihydroquinolin-4-yl}amino)benzamide]: the EC50 was above 10 µM.

With `COCCOc1ccc(Nc2cc(=O)[nH]c3ccc(C(c4ccc(Cl)cc4)c4ccc(Cl)cc4)cc23)cc1` [Compound 94, 6-[Bis(4-chlorophenyl)methyl]-4-{[4-(2-methoxyethoxy)phenyl]amino}quinolin-2(1H)-one], the EC50 is above 10 µM.

In turn, `O=C(O)CC(=O)N1CCC(Nc2cc(=O)[nH]c3ccc(C(c4ccc(Cl)cc4)c4ccc(Cl)cc4)cc23)CC1` [Compound 96, 3-[4-({6-[Bis(4-chlorophenyl)methyl]-2-oxo-1,2-dihydroquinolin-4-yl}amino)piperidin-1-yl]-3-oxopropanoic acid] showed an EC50 above 10 µM.

In turn, `O=C(O)CCC(=O)N1CCC(Nc2cc(=O)[nH]c3ccc(C(c4ccc(Cl)cc4)c4ccc(Cl)cc4)cc23)CC1` [Compound 98, 4-(4-((6-(bis(4-chlorophenyl)methyl)-2-oxo-1,2-dihydroquinolin-4-yl)amino)piperidin-1-yl)-4-oxobutanoic acid] registered an EC50 above 10 µM.

Regarding `CCOC(=O)CS(=O)(=O)N1CCC(Nc2cc(=O)[nH]c3ccc(C(c4ccc(Cl)cc4)c4ccc(Cl)cc4)cc23)CC1` [Compound 102, ethyl 2-((4-((6-(bis(4-chlorophenyl)methyl)-2-oxo-1,2-dihydroquinolin-4-yl)amino)piperidin-1-yl)sulfonyl)acetate], the EC50 was above 10 µM.

For `CCOC(=O)CCCNc1cc(C(c2ccc(Cl)cc2)c2ccc(Cl)cc2)cc2c(NC3CCN(S(=O)(=O)C(F)(F)F)CC3)cc(=O)[nH]c12` [Compound 104, Ethyl 4-({6-[bis(4-chlorophenyl)methyl]-2-oxo-4-({1-[(trifluoromethyl)sulfonyl]piperidin-4-yl}amino)-1,2-dihydroquinolin-8-yl}amino)butanoate], the EC50 was above 10 µM.

Consider `CC(C)(C)OC(=O)COc1ccc(Nc2cc(=O)[nH]c3ccc(C(c4ccc(Cl)cc4)c4ccc(Cl)cc4)cc23)cc1` [Compound 105, tert-butyl 2-(4-((6-(bis(4-chlorophenyl)methyl)-2-oxo-1,2-dihydroquinolin-4-yl)amino)phenoxy)acetate], for which the EC50 was above 10 µM.

`O=C(O)COc1ccc(Nc2cc(=O)[nH]c3ccc(C(c4ccc(Cl)cc4)c4ccc(Cl)cc4)cc23)cc1` [Compound 109, 2-(4-((6-(bis(4-chlorophenyl)methyl)-2-oxo-1,2-dihydroquinolin-4-yl)amino)phenoxy)acetic acid]: the EC50 is above 10 µM.

On to `COCCn1c(=O)cc(NC2CCN(S(=O)(=O)C(F)(F)F)CC2)c2cc(C(c3ccc(Cl)cc3)c3ccc(Cl)cc3)ccc21` [Compound 110, 6-(bis(4-chlorophenyl)methyl)-1-(2-methoxyethyl)-4-((1-((trifluoromethyl)sulfonyl)piperidin-4-yl)amino)quinolin-2(1H)-one], for which the EC50 is above 10 µM.

Compound `NC(=O)COc1ccc(Nc2cc(=O)[nH]c3ccc(C(c4ccc(Cl)cc4)c4ccc(Cl)cc4)cc23)cc1` [Compound 111, 2-(4-((6-(bis(4-chlorophenyl)methyl)-2-oxo-1,2-dihydroquinolin-4-yl)amino)phenoxy)acetamide] registered an EC50 above 10 µM.

The compound `NC(=O)CCC(=O)N1CCC(Nc2cc(=O)[nH]c3ccc(C(c4ccc(Cl)cc4)c4ccc(Cl)cc4)cc23)CC1` [Compound 112, 4-[4-({6-[Bis(4-chlorophenyl)methyl]-2-oxo-1,2-dihydroquinolin-4-yl}amino)piperidin-1-yl]-4-oxobutanamide] gave an EC50 above 10 µM.

`CC(C)(C)OC(=O)CCN1CCC(Nc2cc(=O)[nH]c3ccc(C(c4ccc(Cl)cc4)c4ccc(Cl)cc4)cc23)CC1` [Compound 114, tert-butyl 3-(4-((6-(bis(4-chlorophenyl)methyl)-2-oxo-1,2-dihydroquinolin-4-yl)amino)piperidin-1-yl)propanoate]: the EC50 was above 10 µM.

As for `O=C(O)CN1CCC(Nc2cc(=O)[nH]c3ccc(C(c4ccc(Cl)cc4)c4ccc(Cl)cc4)cc23)CC1` [Compound 117, [4-({6-[Bis(4-chlorophenyl)methyl]-2-oxo-1,2-dihydroquinolin-4-yl}amino)piperidin-1-yl]acetic acid], the EC50 was above 10 µM.

Turning to `CC(C)(C)OC(=O)/N=C(/NC(=O)OC(C)(C)C)N1CCC(Nc2cc(=O)[nH]c3ccc(C(c4ccc(Cl)cc4)c4ccc(Cl)cc4)cc23)CC1` [Compound 119, (Z)-tert-butyl ((4-((6-(bis(4-chlorophenyl)methyl)-2-oxo-1,2-dihydroquinolin-4-yl)amino)piperidin-1-yl)((tert-butoxycarbonyl)imino)methyl)carbamate], the EC50 is above 10 µM.

`O=C(O)CCCOc1ccc(Nc2cc(=O)[nH]c3ccc(C(c4ccc(Cl)cc4)c4ccc(Cl)cc4)cc23)cc1` [Compound 121, 4-[4-({6-[Bis(4-chlorophenyl)methyl]-2-oxo-1,2-dihydroquinolin-4-yl}amino)phenoxy]butanoic acid] displayed an EC50 above 10 µM.

In turn, `NC(=O)CCCOc1ccc(Nc2cc(=O)[nH]c3ccc(C(c4ccc(Cl)cc4)c4ccc(Cl)cc4)cc23)cc1` [Compound 123, 4-[4-({6-[Bis(4-chlorophenyl)methyl]-2-oxo-1,2-dihydroquinolin-4-yl}amino)phenoxy]butanamide] showed an EC50 above 10 µM.

`COC(=O)Cc1ccc(Nc2cc(=O)[nH]c3ccc(C(c4ccc(Cl)cc4)c4ccc(Cl)cc4)cc23)cc1` [Compound 124, Methyl [4-({6-[bis(4-chlorophenyl)methyl]-2-oxo-1,2-dihydroquinolin-4-yl}amino)phenyl]acetate]: the EC50 is above 10 µM.

As for `O=C(O)Cc1ccc(Nc2cc(=O)[nH]c3ccc(C(c4ccc(Cl)cc4)c4ccc(Cl)cc4)cc23)cc1` [Compound 125, [4-({6-[Bis(4-chlorophenyl)methyl]-2-oxo-1,2-dihydroquinolin-4-yl}amino)phenyl]acetic acid], the EC50 is above 10 µM.

Source of the values: patent publication US9464055B2, “Quinoline derivatives useful as CB-1 inverse agonists” (JANSSEN PHARMACEUTICA NV, priority 2014, dated 2016).
